Test results from patent publication US9107909B2, “Materials and methods to enhance hematopoietic stem cells engraftment procedures” (priority 2008, dated 2015).
“Also recorded” adds a separate entry of the source. Where a name gives a salt, the structure may show the parent alone.

Experiments:
[1] = system: SKL cells; assay: HSPC homing to bone marrow in vivo; set-up: species or system mouse; settings: 10 microMolar AMD3100, cells incubated before homing assay; dihydrate
Method: CD45.2 WBM was labeled with CFSE (Molecular Probes, Eugene, Oreg.) washed and treated on ice with either 1 microMolar dmPGE2 or vehicle. After treatment, cells were washed and 2×10^7 cells transplanted into lethally irradiated CD45.2 mice. After 16 hours, femurs and tibias were flushed, and a proportion of mouse marrow Lin^+ cells depleted using MACS microbeads (Miltenyi Biotech), stained with fluorochrome-conjugated-antibodies specific for biotin (lineage), c-kit (K), and Sca-1 (S) and the total number of CFSE^+ WBM (non lineage depleted), KL and SKL cells determined. For congenic homing studies, Lin^neg CD45.1 cells were treated on ice with 1 microMolar dmPGE2, vehicle, or PBS. After incubation, cells were washed and 2×10^6 cells transplanted into CD45.2 mice. After 16 hours, recipient bone marrow was harvested, lineage depleted, stained, and donor CD45.1 SKL cells determined. For competitive, head-to-head homing studies using sorted SKL cells, Lin^neg cells from CD45.2 and CD45.1 mice were FACS sorted, cells treated with either dmPGE2 or vehicle for 2 hours, washed and 3×10^4 CD45.1 (vehicle or dmPGE2 treated) plus 3×10^4 CD45.2 (dmPGE2 or vehicle treated) SKL cells transplanted into lethally irradiated F1 Hybrid mice. To evaluate the role of CXCR4 in homing studies, Lin^neg CD45.2 cells were treated on ice with vehicle or 1 microMolar dmPGE2 plus 10 microMolar AMD3100 (AnorMed Inc., Vancouver, BC, Canada) and 2×10^6 treated cells injected into lethally irradiated CD45.1 mice. Homed SKL cells were analyzed 16 hours post-transplant.
Irrespective of its cause a marrow niche is required for HSPC to self-renew and differentiate and it is very likely that only HSPC homing to these niches can provide long-term repopulation. Referring now to FIG. 3A, in order to assess HSPC homing, CFSE labeled whole bone marrow (WBM) CD45.2 cells were pulsed with dmPGE2 or vehicle for 2 hours on ice, washed and injected IV in lethally irradiated CD45.2 hosts. After 16 hours, total CFSE^+ cells homing to bone marrow as well as the number of homed events within the KL and SKL cell populations were quantified.
Highly purified SKL cells from both CD45.2 and CD45.1 mice were isolated by FACS sorting, treated with dmPGE2 or vehicle, and 3×10^4 vehicle-treated CD45.1 cells plus 3×10^4 dmPGE2-treated CD45.2 cells transplanted into CD45.1/CD45.2 mice. An additional cohort was concurrently transplanted with congenic strain and treatment groups were switched to test for any bias in strain homing. […] Although SKL cells are not a homogenous HSPC population, they are highly enriched for LTRC (Okada et al., 1992; Spangrude and Scollay, 1990).
To evaluate the role of CXCR4 in homing, Lineage^neg CD45.2 cells were treated with vehicle or 1 microMolardmPGE2 plus 10 microMolar AMD3100, 2×10^6 treated cells injected into lethally-irradiated CD45.1 mice and homed SKL cells recovered 16 hours post-transplant and analyzed by FACS. Referring now to FIG. 11, homing efficiency of vehicle and dmPGE2 treated cells to bone marrow in the absence and presence of 10 microMolar AMD3100. Cells were incubated with AMD3100 for 30 minutes prior to the homing assay.

[2] = system: CFU-GM; assay: CFU-GM mobilization to peripheral blood in mice; assay type: in vivo, mouse; settings: for CFU-GM / peripheral blood stem cell mobilization with G-CSF: co-administered with G-CSF, 4 days, vs G-CSF alone
Method: Since PGE2 increases CXCR4 receptor expression and SDF-1/CXCR4 signalling is important for trafficking and retention of HSPC in the marrow. […] Data are expressed as mean±SEM CFU-GM mobilized per ml of blood for N=3 mice each assayed individually.
Mice were given SC treatments of 150 microgram/kg indomethacin or 150 microgram/kg baicalein (lipoxygenase inhibitor) in gelatin every 48 hours with or without G-CSF for 4 days. CFU-GM mobilization was determined as previously described (Pelus et. al., Experimental Hematology 33 (2005) 295-307). […] Data are expressed as mean±SEM CFU-GM mobilized per ml of blood for N=3 mice each assayed.
Referring now to FIG. 16, mice were given daily, bid SC injections with G-CSF (1 microgram per mouse) or G-CSF+indomethacin (50 microgram per mouse) for 4 days. CFU-GM mobilization was determined as described (Pelus et. al., Experimental Hematology 33 (2005) 295-307).
Mice were given daily, bid SC injections with vehicle or Indomethacin (50 microgram per mouse) for four days. On day 5, mice were given either vehicle or AMD3100 (5 mg/kg). One hour later mice were sacrificed and CFU-GM mobilization was determined as previously described (Pelus et. al., Experimental Hematology 33 (2005) 295-307). […] Data are expressed as mean±SEM, n=5 mice per group, each assayed individually.
Mice were mobilized with G-CSF and CFU-GM in PB was compared to mobilization regimens with G-CSF and the combination of various NSAIDS (Aspirin [COX-1 and COX-2]; Licofelone [COX-2 and 5-LOX]; SC-560 [COX-1]; Valeryl Salicylate [COX-1]; Valdecoxib [COX-2]; NS-398 [COX-2]). […] In order to test the efficacy of two commonly used COX inhibitors, mice were mobilized with G-CSF or the combination of G-CSF and aspirin or ibuprofen (PO., bid, 4 days). CFU-GM was determined as previously described. Referring now to FIG. 28, dose-response analysis of G-CSF+Aspirin and G-CSF+Ibuprofen mobilization of CFU-GM to peripheral blood are present in bar graph form for a control group of mice treated with only G-CSF; for mice treated with G-CSF plus 10, 20 or 40 milligram/kg of aspirin; and for mice treated with G-CSF plus 10, 20 or 40 milligram/kg of ibuprofen. Data are expressed as mean±SEM, n=4 mice per group, each assayed individually.

[3] = system: mobilized PBMC; assay: Competitive transplantation of mobilized PBMC; assay type: in vivo, mouse; settings: co-administered with G-CSF without stagger, 12 weeks post transplant, vs G-CSF alone
Text: Data are expressed as mean±SEM, n=5 mice per group, each assayed individually.

SMILES	effect of CXCR4 antagonist on SKL cell homing and on PGE2-enhanced homing [1]	baseline CFU-GM mobilization ([2]; 150 μg/kg SC, alone)	CFU-GM / peripheral blood stem cell mobilization with G-CSF [2]	increase in the number of mobilized progenitor cells (CFU-GM) ([2]; 150 μg/kg SC once daily for 4 days, alone)	HSPC (CFU-GM) mobilization in combination with AMD3100 ([2]; 50 microgram per mouse bid SC 4 days, AMD3100 5 mg/kg day 5)	CFU-GM / peripheral blood stem cell mobilization with G-CSF ([2]; listed as Indomethacin)	engraftment (competitive repopulating units) of mobilized PBMC [3]
c1cc(CN2CCCNCCNCCCNCC2)ccc1CN1CCCNCCNCCCNCC1 [AMD3100, 1,1′-[1,4-Phenylenebis(methylene)]bis[1,4,8,11-tetraazacyclotetradecane]octohydrobromide dihydrate]	reduced SKL cell homing and abrogated the improved homing efficiency; also recorded: significantly reduced	–	–	–	–	–	–
O=c1cc(-c2ccccc2)oc2cc(O)c(O)c(O)c12 [baicalein]	–	no effect	no effect	–	–	–	–
COc1ccc2c(c1)c(CC(=O)O)c(C)n2C(=O)c1ccc(Cl)cc1 [indomethacin, 2-{1-[(4-chlorophenyl)carbonyl]-5-methoxy-2-methyl-1H-indol-3-yl}acetic acid]	–	–	highly synergistic increase; also recorded: larger fold increase	4 fold	Mobilizes HSPC	synergistically mobilize; also recorded: synergistic effect	no improvement in engraftment
